For nine compounds, IC50 results are on record in US5206250A, “Bis-naphthalimides containing amide and thioamide linkers as anticancer agents” (Du Pont Merck Pharmaceutical Company, priority 1991, dated 1993).

≈ marks a conversion by molar mass, not a printed value. A value given as a limit tells only on which side of the number the result lay.

The subject of the test is L1210 cells. Kind of test: In vitro Growth Inhibitory Activity Determination (L1210 cells, MTT). As to conditions: Mus musculus, 72 h, 3 days incubation at 37° C., dose of drug that inhibits the growth of cells to one half that of the control cells, read-out: ID50 (the source's name). It is filed as cell-based. As to the method: L1210 cells were maintained in RPMI=1640 a medium supplemented with 10% heat inactivated fetal bovine serum and […] mercaptomethanol/liter medium (RPMI-L).
Exponential growing L1210 cells (1×10^3 cells) in 0.1 mL medium were seeded on day 0 in a 96-well microtiter plate. On day 1, 0.1 mL aliquot of medium containing graded concentration of test analogs was added to the initial volume. After incubation at 37° C. in a humidified incubator for 3 days, the plates were centrifuged briefly and […] of the growth medium was removed. Cell cultures were incubated with […] of 3-(4, 5-dimethylthiazol-2yl)-2,5- diphenyltetrazolium bromide (MTT; 1 mg/ml in Dulbecco's phosphate buffer saline) for 4 hours at 37° C. The resulting purple formazan precipitate was solubilized with […] of 0.04 N HCl in isopropyl alcohol. Absorbance was read in a Titertek Multiskan MCC scaning well spectrophotometer (Flow Laboratories) at a test wavelength of 570 nm and a reference wavelength of 630 nm.
The absorbances were stored on a floppy disk on a IBM-XT and uploaded on to a VAX computer.
Y=((AM - Ao)/(1+(X/ID50)n))+Ao
Am=absorbance of the control cells
Ao=absorbance of the cells in the presence of highest drug conc.
ID50 =dose of drug that inhibits the growth of cells to one half that of the control cells.
As to `O=C(CCN1C(=O)c2cccc3cc([N+](=O)[O-])cc(c23)C1=O)NCCCCNC(=O)CCN1C(=O)c2cccc3cc([N+](=O)[O-])cc(c23)C1=O` [Example 7], the IC50 came to 19 mg/L (≈ 27.9 µM).

As for `C[C@@H](C(=O)NCCCCNC(=O)[C@H](C)N1C(=O)c2cccc3cc([N+](=O)[O-])cc(c23)C1=O)N1C(=O)c2cccc3cc([N+](=O)[O-])cc(c23)C1=O` [Example 4], the IC50 was determined as 0.36 mg/L (≈ 0.529 µM).

For `C[C@@H](C(=O)NCCCNC(=O)[C@H](C)N1C(=O)c2cccc3cc([N+](=O)[O-])cc(c23)C1=O)N1C(=O)c2cccc3cc([N+](=O)[O-])cc(c23)C1=O` [Example 5], the IC50 was 0.025 mg/L (≈ 0.0375 µM).

`C[C@@H](C(=S)NCCNC(=S)[C@H](C)N1C(=O)c2cccc3cc([N+](=O)[O-])cc(c23)C1=O)N1C(=O)c2cccc3cc([N+](=O)[O-])cc(c23)C1=O` [Example 6, (S,S)-N,N'-1,2-ethanediylbis[α-methyl-5-nitro-1,3-dioxo-1H-benz[de]isoquinoline-2(3H)ethanethioamide]]: the IC50 was found to be 0.184 mg/L (≈ 0.269 µM).

Turning to `O=C(CCN1C(=O)c2cccc3cc([N+](=O)[O-])cc(c23)C1=O)NCCCNC(=O)CCN1C(=O)c2cccc3cc([N+](=O)[O-])cc(c23)C1=O` [Example 8], the IC50 was above 20 mg/L.

As for `O=C(CCN1C(=O)c2cccc3cc([N+](=O)[O-])cc(c23)C1=O)NCCNC(=O)CCN1C(=O)c2cccc3cc([N+](=O)[O-])cc(c23)C1=O` [Example 9], the IC50 was determined as 15.1 mg/L (≈ 23.1 µM).

Consider `CSCC[C@@H](C(=O)NCCCNC(=O)[C@H](CCSC)N1C(=O)c2cccc3cc([N+](=O)[O-])cc(c23)C1=O)N1C(=O)c2cccc3cc([N+](=O)[O-])cc(c23)C1=O` [Example 3], for which the IC50 was 0.12 mg/L (≈ 0.153 µM).

For `C[C@@H](C(=O)NCCNC(=O)[C@H](C)N1C(=O)c2cccc3cc([N+](=O)[O-])cc(c23)C1=O)N1C(=O)c2cccc3cc([N+](=O)[O-])cc(c23)C1=O` [Example 1, (S,S)-N,N'-1,2-ethanediylbis[α-methyl-5-nitro-1,3-dioxo-1H-benz[de]isoquinoline-2(3H)-acetamide]], the IC50 came to 0.61 mg/L (≈ 0.935 µM).

With `C[C@H](C(=O)NCCNC(=O)[C@@H](C)N1C(=O)c2cccc3cc([N+](=O)[O-])cc(c23)C1=O)N1C(=O)c2cccc3cc([N+](=O)[O-])cc(c23)C1=O` [Example 2, (R,R)-N,N'-1,2-ethanediylbis[α-methyl-5-nitro-1,3-dioxo-1H-benz[de]isoquinoline-2(3H)-acetamide]], the IC50 was 0.033 mg/L (≈ 0.0506 µM).
